The source of these data is patent US12070455B2, “Thienopyrrole compounds” (Gilead Sciences, Inc., priority 2021, dated 2024).

In one experiment the target is T1, TLR7 (Homo sapiens, UniProt Q9NYK1).
T1 construct: Human peripheral blood mononuclear cells (PBMCs) consist of lymphocytes, monocytes and dendritic cells that express TLR7, TLR8 and TLR9; endogenous in cells; host or cells: cryopreserved human PBMCs from healthy donors
T1 sequence (Q9NYK1 27-1049): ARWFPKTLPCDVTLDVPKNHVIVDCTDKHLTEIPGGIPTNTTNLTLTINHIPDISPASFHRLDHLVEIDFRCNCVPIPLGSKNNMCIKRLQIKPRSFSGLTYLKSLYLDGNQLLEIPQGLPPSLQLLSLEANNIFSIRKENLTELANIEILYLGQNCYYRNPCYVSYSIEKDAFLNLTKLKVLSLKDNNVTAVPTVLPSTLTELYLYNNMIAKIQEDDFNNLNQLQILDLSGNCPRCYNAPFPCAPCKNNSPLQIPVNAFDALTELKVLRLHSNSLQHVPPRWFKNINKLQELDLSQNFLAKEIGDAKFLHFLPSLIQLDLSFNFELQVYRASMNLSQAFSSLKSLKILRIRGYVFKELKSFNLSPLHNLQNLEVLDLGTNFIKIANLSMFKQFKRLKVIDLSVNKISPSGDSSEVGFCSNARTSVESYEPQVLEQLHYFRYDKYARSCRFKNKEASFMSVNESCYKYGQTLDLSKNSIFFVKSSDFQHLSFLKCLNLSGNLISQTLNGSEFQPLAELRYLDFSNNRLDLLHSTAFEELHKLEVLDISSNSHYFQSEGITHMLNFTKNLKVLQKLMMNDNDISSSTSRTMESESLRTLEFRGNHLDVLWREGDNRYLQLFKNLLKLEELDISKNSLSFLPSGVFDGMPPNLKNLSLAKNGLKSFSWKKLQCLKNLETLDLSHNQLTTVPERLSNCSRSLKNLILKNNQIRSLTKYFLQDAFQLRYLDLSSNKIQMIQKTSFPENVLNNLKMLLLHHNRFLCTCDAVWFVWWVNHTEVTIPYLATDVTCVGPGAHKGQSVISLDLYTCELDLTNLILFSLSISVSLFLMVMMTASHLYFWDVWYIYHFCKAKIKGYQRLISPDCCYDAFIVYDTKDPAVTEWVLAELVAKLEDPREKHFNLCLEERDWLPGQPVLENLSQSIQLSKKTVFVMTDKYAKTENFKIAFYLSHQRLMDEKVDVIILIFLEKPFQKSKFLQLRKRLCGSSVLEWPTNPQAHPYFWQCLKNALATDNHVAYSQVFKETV
The experiment in a line: TLR7 human peripheral blood mononuclear cell (PBMC) cell-based assay. The settings on record: human PBMCs; 1 h with test antagonist, then TLR7 agonist GS-986 400 nM for 6 h; cytokines (IL-6 and IFNα) in supernatant; read-out: TLR-7 EC50. An excerpt: TLR7/9 Human Peripheral Blood Mononuclear Cell (PBMC) Cell-Based Assay
Human peripheral blood mononuclear cells (PBMCs) consist of lymphocytes, monocytes and dendritic cells that express TLR7, TLR8 and TLR9. These cells respond to TLR7, TLR8 and TLR9 ligand stimulation and produce cytokines and chemokines in vitro and in vivo. Human PBMCs are therefore suitable to be used in a cell-based assay to assess the in vitro potency of a TLR 7, 8, and/or 9 antagonist.
Cryopreserved human PBMCs from healthy donors were thawed and resuspended in RPMI-1640 media with L-glutamine (Corning) supplemented with 10% Fetal Bovine Serum (Hyclone) and 1× Penicillin-Streptomycin (Corning). After counting, the cell density was adjusted to 2 million cells/ml and incubated for 1 hour at 37° C., 5% CO2 for recovery. Following the recovery, the cells were plated by adding 50 μl per well (100,000 cells) to 384-well cell culture plates (Greiner) containing 250 nl of test antagonists in 100% DMSO per well, in a 10 points dose response in quadruplicates. PBMCs were incubated in the presence of test antagonists for one hour at 37° C., 5% CO2 before being stimulated with a TLR7 or TLR9 agonist. GS-986 (Gilead Sciences) was used as the TLR7 agonist at a final concentration of 400 nM. ODN-2216 (InvivoGen) was used as the TLR9 agonist at a final concentration of 3 μM. PBMCs were incubated in the presence of the test antagonist and the TLR7 (or TLR9) agonist for an additional 6 hours at 37° C., 5% CO2. At the end of the incubation, the cell culture plates were centrifuged at 500 g for 5 min, and the cell culture supernatant was collected. The level of cytokines (IL-6 and IFNα) in the supernatant was measured by electrochemiluminescence immunoassays (Mesoscale Discovery) following manufacturer's recommended protocols. The level of cytokine measured was plotted against the test antagonist concentration and fitted to a sigmoidal function to determine the EC50, which are shown below in Table 6.

Another experiment has as its target T2, TLR8 (Homo sapiens, UniProt Q9NR97).
T2 construct: Human peripheral blood mononuclear cells (PBMCs) consist of lymphocytes, monocytes and dendritic cells that express TLR7, TLR8 and TLR9; endogenous in cells; host or cells: cryopreserved human PBMCs from healthy donors
T2 sequence (Q9NR97 27-1041): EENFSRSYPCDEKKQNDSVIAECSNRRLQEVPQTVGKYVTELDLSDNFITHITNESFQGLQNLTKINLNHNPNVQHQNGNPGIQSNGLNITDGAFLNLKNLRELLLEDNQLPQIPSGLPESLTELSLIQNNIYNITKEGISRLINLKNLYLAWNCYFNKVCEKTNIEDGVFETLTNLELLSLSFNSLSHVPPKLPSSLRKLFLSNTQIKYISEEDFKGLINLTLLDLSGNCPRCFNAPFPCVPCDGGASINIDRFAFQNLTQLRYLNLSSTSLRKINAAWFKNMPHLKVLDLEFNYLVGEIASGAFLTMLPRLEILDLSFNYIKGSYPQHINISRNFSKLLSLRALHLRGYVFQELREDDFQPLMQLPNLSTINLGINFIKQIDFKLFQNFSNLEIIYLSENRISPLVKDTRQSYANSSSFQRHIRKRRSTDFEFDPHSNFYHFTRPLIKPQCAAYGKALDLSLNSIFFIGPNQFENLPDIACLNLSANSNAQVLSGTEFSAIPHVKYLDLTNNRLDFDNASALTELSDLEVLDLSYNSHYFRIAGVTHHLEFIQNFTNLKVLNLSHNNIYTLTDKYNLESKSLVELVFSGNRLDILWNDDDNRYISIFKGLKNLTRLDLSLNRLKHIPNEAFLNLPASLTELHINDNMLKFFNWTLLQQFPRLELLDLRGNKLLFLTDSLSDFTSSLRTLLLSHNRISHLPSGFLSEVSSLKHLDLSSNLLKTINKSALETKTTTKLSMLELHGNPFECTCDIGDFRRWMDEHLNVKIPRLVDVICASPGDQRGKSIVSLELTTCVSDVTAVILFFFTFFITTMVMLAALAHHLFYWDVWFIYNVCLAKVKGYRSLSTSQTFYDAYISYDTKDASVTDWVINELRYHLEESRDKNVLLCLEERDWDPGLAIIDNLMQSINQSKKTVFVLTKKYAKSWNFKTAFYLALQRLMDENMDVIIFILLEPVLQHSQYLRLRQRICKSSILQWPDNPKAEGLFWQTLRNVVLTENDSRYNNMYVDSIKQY
In words: TLR8 human peripheral blood mononuclear cell (PBMC) cell-based assay. The settings on record: human PBMCs; 1 h with antagonist, then TLR8 agonist Compound A 800 nM for 6 h; cytokines (TNFa and IL12p40) in supernatant; read-out: TLR-8 EC50. The method, then: TLR8 Human Peripheral Blood Mononuclear Cell (PBMC) Cell-Based Assay
Cryopreserved human PBMCs from healthy donors were thawed and resuspended in RPMI-1640 media with L-glutamine (Corning) supplemented with 10% Fetal Bovine Serum (Hyclone) and 1× Penicillin-Streptomycin (Corning). After counting, the cell density was adjusted to 2 million cells/ml and incubated for 1 hour at 37° C., 5% CO2 for recovery. Following the recovery, the cells were plated by adding 50 μl per well (100,000 cells) to 384-well cell culture plates (Greiner) containing 250 nl of test antagonists in 100% DMSO per well, in a 10 points dose response in quadruplicates. PBMCs were incubated in the presence of antagonists for one hour at 37° C., 5% CO2 before being stimulated with TLR8 agonist. Compound A (Gilead Sciences, U.S. Pat. No. 10,285,990) was used as the TLR8 agonist at a final concentration of 800 nM. PBMCs were incubated in the presence of antagonist and the TLR8 agonist for an additional 6 hours at 37° C., 5% CO2. At the end of the incubation, the cell culture plates were centrifuged at 500 g for 5 min, and the cell culture supernatant was collected. The level of cytokines (TNFa and IL12p40) in the supernatant was measured by electrochemiluminescence immunoassays (Mesoscale Discovery) following manufacturer's recommended protocols. The level of cytokine measured was plotted against the antagonist concentration and fitted to a sigmoidal function to determine the EC50, which are shown below in Table 6.

One may read the EC50 as the midpoint of the concentration-response curve. On to `Cc1c(C2CCN(C(=O)[C@@H]3C[C@H](C(F)(F)F)CN3)CC2)sc2[nH]c(-c3cn4ncnc4c4c3CCC4)c(C(C)C)c12` [Example 39], for which the results for the EC50 at TLR7 and on TLR8 were 3.4 nM and 5.01 nM, respectively.

With `CC(C)c1c(-c2cn3ncnc3c3c2CCC3)[nH]c2sc(C(=O)N(C)C3CCNCC3)cc12` [Example 41, 5-(8,9-dihydro-7H-cyclopenta[c][1,2,4]triazolo[1,5-a]pyridin-6-yl)-4-isopropyl-N-methyl-N-(piperidin-4-yl)-6H-thieno[2,3-b]pyrrole-2-carboxamide], the EC50 was determined as 0.49 nM on TLR7 and 2.56 nM on TLR8.

For the compound `CC(C)c1c(-c2cn3ncnc3c3c2CCC3)[nH]c2sc(C(=O)N3CCNCC3)cc12` [Example 42], the results for the half-maximal effective concentration (EC50) at TLR7 and on TLR8 were 0.78 nM and 0.69 nM, respectively.

Consider `Cc1nc2c3c(c(-c4[nH]c5sc([C@@H]6C[C@@H]7C[C@H]6CN7CC(N)=O)c(C)c5c4C(C)C)cn2n1)COC3` [Example 43, 2-((1S,4R,5R)-5-(4-isopropyl-3-methyl-5-(2-methyl-7,9-dihydrofuro[3,4-c][1,2,4]triazolo[1,5-a]pyridin-6-yl)-6H-thieno[2,3-b]pyrrol-2-yl)-2-azabicyclo[2.2.1]heptan-2-yl)acetamide], for which the EC50 is 1.1 nM on TLR7 and 2.05 nM on TLR8.

Turning to `Cc1nc2c3c(c(-c4[nH]c5sc(C6CCN(CC(N)=O)CC6)c(C)c5c4C(C)C)cn2n1)COC3` [Example 44], the figures for the EC50 at TLR7 and at TLR8 were 4.09 nM and 135 nM, respectively.

Consider `Cc1c(C2CCN(CC(N)=O)CC2)sc2[nH]c(-c3cn4ncnc4c4c3COC4)c(C(C)C)c12` [Example 45], for which the EC50 on TLR7 worked out at 4 nM; at TLR8, 63.6 nM.

Regarding `Cc1nc2c3c(c(-c4[nH]c5sc([C@@H]6C[C@H]7CC[C@@H](C6)N7CC(N)=O)c(C)c5c4C(C)C)cn2n1)COC3` [Example 46], the values for the EC50 at TLR7 and at TLR8 were 1.21 nM and 77.9 nM, respectively.

As for `Cc1c([C@@H]2C[C@@H]3C[C@H]2CN3CC(N)=O)sc2[nH]c(-c3cn4ncnc4c4c3COC4)c(C(C)C)c12` [Example 48], the EC50 on TLR7 was 0.39 nM; on TLR8, 0.36 nM.

Take `Cc1c([C@@H]2C[C@H]3CC[C@@H](C2)N3CC(N)=O)sc2[nH]c(-c3cn4ncnc4c4c3COC4)c(C(C)C)c12` [Example 49]: the EC50 came to 0.41 nM at TLR7 and 15.2 nM at TLR8.

As to `Cc1nc2c3c(c(-c4[nH]c5sc(C6CCN(CC(N)=O)CC6)c(C)c5c4C(C)C)cn2n1)CCC3` [Example 50], the EC50 was found to be 0.78 nM at TLR7 and 34.6 nM at TLR8.

Consider `Cc1nc2c3c(c(-c4[nH]c5sc(C6CCN(C(=O)[C@H]7COCCN7)CC6)c(C)c5c4C(C)C)cn2n1)COC3` [Example 51, (R)-(4-(4-isopropyl-3-methyl-5-(2-methyl-7,9-dihydrofuro[3,4-c][1,2,4]triazolo[1,5-a]pyridin-6-yl)-6H-thieno[2,3-b]pyrrol-2-yl)piperidin-1-yl)(morpholin-3-yl)methanone], for which the EC50 was determined as 2.46 nM on TLR7 and 96.6 nM at TLR8.

For the compound `Cc1c(C2CCN(C(=O)[C@H]3COCCN3)CC2)sc2[nH]c(-c3cn4ncnc4c4c3COC4)c(C(C)C)c12` [Example 52], the EC50 at TLR7 worked out at 1.17 nM; at TLR8, 26.7 nM.

`Cc1nc2c3c(c(-c4[nH]c5sc(C6CCN(C(=O)[C@H]7COCCN7)CC6)c(C)c5c4C(C)C)cn2n1)CCC3` [Example 53]: the concentration giving a half-maximal response (EC50) on TLR7 is 0.62 nM; on TLR8, 16.2 nM.
